Data as given in PubChem BioAssay AID280 (DTP/NCI, 2004).
Values joined by “and” are separate entries in the source; they are usually repeats but may differ in a detail not shown here. Identical values can stand only once. Toxic doses and inconclusive results are not listed.

System: nude mice, LOX melanoma ip, survival T/C
Experiment: NCI In Vivo Anticancer Drug Screen. Data for tumor model Human Amelanotic Melanoma (LOX) (intraperitoneal) in NU/NU BALB/C (nude) mice
Conditions: endpoint: median survival time, schedule: Q04DX003 (ip), higher = longer survival
Procedure: The antitumor activity of compounds was measured in mice bearing transplantable tumors. Survival or tumor size were measured and the results are expressed as the measurement made in the treated group (T) divided by the measurement made in the vehicle treated control group (C). The tumor model used in this assay is Human Amelanotic Melanoma (LOX) (intraperitoneal) in NU/NU BALB/C (nude) mice

[1] = dose: 75.0 mg/kg/injection, vehicle: saline
[2] = dose: 300.0 mg/kg/injection, vehicle: saline
[3] = dose: 600.0 mg/kg/injection, vehicle: saline
[4] = dose: 1200.0 mg/kg/injection, vehicle: saline
[5] = dose: 50.0 mg/kg/injection, vehicle: saline with Tween-80
[6] = dose: 37.5 mg/kg/injection, vehicle: saline with Tween-80
[7] = dose: 150.0 mg/kg/injection, vehicle: saline with Tween-80
[8] = dose: 300.0 mg/kg/injection, vehicle: saline with Tween-80
[9] = dose: 75.0 mg/kg/injection, vehicle: saline with Tween-80
[10] = dose: 100.0 mg/kg/injection, vehicle: saline with Tween-80
[11] = dose: 200.0 mg/kg/injection, vehicle: saline with Tween-80

## CCOC(=O)Nc1cc2c(c(N)n1)N=C(c1ccccc1)CN2
dose: 0.94 mg/kg/injection, vehicle: saline with Tween-80
  T/C: 103 % of control
dose: 1.88 mg/kg/injection, vehicle: saline with Tween-80
  T/C: 107 % of control
dose: 3.75 mg/kg/injection, vehicle: saline with Tween-80
  T/C: 119 % of control
dose: 7.5 mg/kg/injection, vehicle: saline with Tween-80
  T/C: 121 % of control

## O=C(O)C1CC(O)CN1 (stereo not drawn)
[1]
  T/C: 108 % of control
[2]
  T/C: 112 % of control
[3]
  T/C: 107 % of control
[4]
  T/C: 114 % of control

## COc1cc2c(c(OC)c1OC)-c1cccc(=O)cc1C(NC(C)=O)CC2 (stereo not drawn)
dose: 12.5 mg/kg/injection, vehicle: saline
  T/C: 104 % of control
dose: 25.0 mg/kg/injection, vehicle: saline
  T/C: 122 % of control
dose: 50.0 mg/kg/injection, vehicle: saline
  T/C: 110 % of control
dose: 100.0 mg/kg/injection, vehicle: saline
  T/C: 106 % of control
dose: 200.0 mg/kg/injection, vehicle: saline
  T/C: 103 % of control

## O=CC(O)C(O)C(O)C(O)CO (stereo not drawn)
[1]
  T/C: 112 % of control and 99 % of control
dose: 150.0 mg/kg/injection, vehicle: saline
  T/C: 107 % of control and 98 % of control
[2]
  T/C: 102 % of control and 106 % of control
[3]
  T/C: 95 % of control
[4]
  T/C: 98 % of control and 99 % of control

## C[n+]1c(-c2ccc(NC(=O)c3ccc(C(=O)Nc4ccc(-c5cn6ccccc6[n+]5C)cc4)cc3)cc2)cn2ccccc21
dose: 12.5 mg/kg/injection, vehicle: saline with Tween-80
  T/C: 114 % of control
dose: 25.0 mg/kg/injection, vehicle: saline with Tween-80
  T/C: 103 % of control
[5]
  T/C: 97 % of control

## N#Cc1c(-c2ccc(F)cc2)c(-c2ccc(F)cc2)nn(CCO)c1=O
dose: 12.5 mg/kg/injection, vehicle: distilled water + Tween-80
  T/C: 98 % of control
dose: 25.0 mg/kg/injection, vehicle: distilled water + Tween-80
  T/C: 111 % of control
dose: 50.0 mg/kg/injection, vehicle: distilled water + Tween-80
  T/C: 115 % of control
dose: 72.0 mg/kg/injection, vehicle: distilled water + Tween-80
  T/C: 110 % of control
dose: 100.0 mg/kg/injection, vehicle: distilled water + Tween-80
  T/C: 122 % of control
dose: 120.0 mg/kg/injection, vehicle: distilled water + Tween-80
  T/C: 124 % of control
dose: 200.0 mg/kg/injection, vehicle: distilled water + Tween-80
  T/C: 120 % of control
dose: 333.33 mg/kg/injection, vehicle: distilled water + Tween-80
  T/C: 166 % of control
dose: 555.55 mg/kg/injection, vehicle: distilled water + Tween-80
  T/C: 212 % of control

## CC[C@@]1(O)C[C@H](OC2CC(N(C)C)C(OC3CC4OC5CC(=O)C(C)OC5OC4C(C)O3)C(C)O2)c2c(O)c3c(c(O)c2[C@H]1OC1CC(N(C)C)C(O)C(C)O1)C(=O)c1cccc(O)c1C3=O (stereo partly drawn)
dose: 63.0 micrograms/kg/injection, vehicle: saline
  T/C: 115 % of control
dose: 125.0 micrograms/kg/injection, vehicle: saline
  T/C: 111 % of control
dose: 250.0 micrograms/kg/injection, vehicle: saline
  T/C: 108 % of control and 94 % of control

## O=NNc1cccnc1
dose: 6.25 mg/kg/injection, vehicle: water
  T/C: 100 % of control and 101 % of control
dose: 12.5 mg/kg/injection, vehicle: water
  T/C: 109 % of control and 101 % of control
dose: 25.0 mg/kg/injection, vehicle: water
  T/C: 113 % of control and 98 % of control
dose: 50.0 mg/kg/injection, vehicle: water
  T/C: 114 % of control and 96 % of control
dose: 100.0 mg/kg/injection, vehicle: water
  T/C: 103 % of control and 117 % of control

## COc1cc(C2=NCCc3cc4c(cc32)OCO4)cc(OC)c1OC
dose: 18.75 mg/kg/injection, vehicle: saline + alcohol
  T/C: 114 % of control
dose: 37.5 mg/kg/injection, vehicle: saline + alcohol
  T/C: 115 % of control
dose: 75.0 mg/kg/injection, vehicle: saline + alcohol
  T/C: 110 % of control
dose: 150.0 mg/kg/injection, vehicle: saline + alcohol
  T/C: 115 % of control

## CCCCCCNc1nc(NCCCCCC)c2[nH]c(NCCCCCC)nc2n1
[6]
  T/C: 123 % of control
[7]
  T/C: 122 % of control

## CN=C(NC)c1ccc(NC(=O)/C=C\c2ccc(/C=C/C(=O)Nc3ccc(C(=NC)NC)cc3)cc2)cc1
dose: 0.78 mg/kg/injection, vehicle: Klucel (hydroxypropylcellulose) (HPC)
  T/C: 104 % of control
dose: 1.56 mg/kg/injection, vehicle: Klucel (hydroxypropylcellulose) (HPC)
  T/C: 109 % of control
dose: 2.0 mg/kg/injection, vehicle: Klucel (hydroxypropylcellulose) (HPC)
  T/C: 90 % of control
dose: 2.25 mg/kg/injection, vehicle: Klucel (hydroxypropylcellulose) (HPC)
  T/C: 101 % of control
dose: 3.75 mg/kg/injection, vehicle: Klucel (hydroxypropylcellulose) (HPC)
  T/C: 87 % of control
dose: 4.0 mg/kg/injection, vehicle: Klucel (hydroxypropylcellulose) (HPC)
  T/C: 105 % of control
dose: 6.0 mg/kg/injection, vehicle: Klucel (hydroxypropylcellulose) (HPC)
  T/C: 111 % of control
dose: 10.0 mg/kg/injection, vehicle: Klucel (hydroxypropylcellulose) (HPC)
  T/C: 105 % of control
dose: 11.0 mg/kg/injection, vehicle: Klucel (hydroxypropylcellulose) (HPC)
  T/C: 98 % of control
dose: 12.5 mg/kg/injection, vehicle: Klucel (hydroxypropylcellulose) (HPC)
  T/C: 109 % of control
dose: 17.0 mg/kg/injection, vehicle: Klucel (hydroxypropylcellulose) (HPC)
  T/C: 90 % of control
dose: 18.0 mg/kg/injection, vehicle: Klucel (hydroxypropylcellulose) (HPC)
  T/C: 95 % of control

## CCN(CC)c1ccc2[nH]c3c(C(N)=O)cc(=O)c(=O)c=3oc2c1
[7]
  T/C: 110 % of control
[8]
  T/C: 96 % of control

## c1ccc([Te][Te]c2ccccc2)cc1
[6]
  T/C: 102 % of control
[9]
  T/C: 92 % of control
[7]
  T/C: 112 % of control

## NC(=O)C1C=CN(Cc2ccccc2)C=C1
[5]
  T/C: 112 % of control
[10]
  T/C: 117 % of control
[11]
  T/C: 123 % of control

## CC(=O)/C(=C\c1ccc(/C=C(\C(C)=O)C(=O)CCN(C)C)cc1)C(=O)CCN(C)C
[5]
  T/C: 94 % of control
[10]
  T/C: 100 % of control
[11]
  T/C: 105 % of control
dose: 400.0 mg/kg/injection, vehicle: saline with Tween-80
  T/C: 107 % of control
dose: 800.0 mg/kg/injection, vehicle: saline with Tween-80
  T/C: 111 % of control

## Cc1noc2nc(-c3ccccc3)cc(N3CCN(C)CC3)c12
dose: 25.0 mg/kg/injection, vehicle: other
  T/C: 97 % of control
dose: 54.0 mg/kg/injection, vehicle: other
  T/C: 97 % of control
dose: 100.0 mg/kg/injection, vehicle: other
  T/C: 97 % of control
dose: 200.0 mg/kg/injection, vehicle: other
  T/C: 93 % of control
dose: 400.0 mg/kg/injection, vehicle: other
  T/C: 98 % of control

## O=C(Nc1cccc(Cl)c1)ON1C(=O)C2C(C1=O)C1(Cl)C(Cl)C(Cl)C2(Cl)C1(Cl)Cl (stereo not drawn)
[9]
  T/C: 99 % of control
[7]
  T/C: 86 % of control
[8]
  T/C: 90 % of control
dose: 600.0 mg/kg/injection, vehicle: saline with Tween-80
  T/C: 101 % of control
